# ChEMBL document CHEMBL1148417, “Thiol-based SAHA analogues as potent histone deacetylase inhibitors” (Bioorg Med Chem Lett, 2004)
# Molecular target: Histone deacetylase
# Type: protein assay
# Description: In vitro inhibitory activity against human histone deacetylase (HDAC) using HeLa nuclear extract
row,Compound,IC50 [µM]
1,CSCCCCCCC(=O)Nc1ccccc1,> 100
2,O=C(CCCCCCNCCS)Nc1ccccc1.O=C(O)C(F)(F)F,> 100
